According to the NIST ThermoML archive (doi:10.1016/j.jct.2012.02.007):
± gives the expanded uncertainty stated by the source.

Conditions: 101.33 kPa, Liquid; for speed of sound: Sing-around technique in a fixed-path interferometer; for mass density: Vibrating tube method

| SMILES | speed of sound (293.15 K) [m/s] | mass density (293.15 K) [kg/m3] | speed of sound (308.15 K) [m/s] | mass density (308.15 K) [kg/m3] | speed of sound (323.15 K) [m/s] | mass density (323.15 K) [kg/m3] |
| --- | --- | --- | --- | --- | --- | --- |
| CCCCn1cc[n+](C)c1.N#CN=C=[N-] [1-butyl-3-methylimidazolium dicyanamide] | 1750.2 ± 2.2 | 1063.32 ± 0.97 | 1712.6 ± 2.2 | 1053.81 ± 0.95 | 1667.3 ± 2.2 | 1044.42 ± 0.93 |
| CCCCCO [pentan-1-ol] | 1292.5 ± 1.3 | 814.54 ± 0.24 | 1242.4 ± 1.3 | 803.53 ± 0.24 | 1192.8 ± 1.3 | 792.17 ± 0.24 |
| CCC(C)O (stereo unspecified) [butan-2-ol] | 1229.5 ± 0.9 | 806.47 ± 0.12 | 1175.5 ± 0.8 | 793.92 ± 0.12 | 1120.3 ± 0.8 | 780.44 ± 0.13 |
| CCCCO [butan-1-ol] | 1256.7 ± 0.8 | 809.53 ± 0.12 | 1206.5 ± 0.8 | 798.06 ± 0.12 | 1156.9 ± 0.8 | 786.21 ± 0.12 |

Results, then the compound that gave them:

| speed of sound (293.15 K) [m/s] | mass density (293.15 K) [kg/m3] | speed of sound (308.15 K) [m/s] | mass density (308.15 K) [kg/m3] | speed of sound (323.15 K) [m/s] | mass density (323.15 K) [kg/m3] | SMILES |
| --- | --- | --- | --- | --- | --- | --- |
| 1157.3 ± 0.8 | 785.4 ± 0.13 | 1104.8 ± 0.8 | 772.6 ± 0.13 | 1051.6 ± 0.8 | 759 ± 0.14 | CC(C)O [propan-2-ol] |
| 1223.4 ± 0.8 | 803.87 ± 0.12 | 1172.3 ± 0.8 | 791.79 ± 0.12 | 1121.8 ± 0.8 | 779.3 ± 0.13 | CCCO [propan-1-ol] |
